Measured values from patent publication US10196353B2, “Chemical compounds” (GlaxoSmithKline Intellectual Property (No. 2) Limited, priority 2012, dated 2019).

Experiments:
[1] = target: androgen receptor (MBP-hAR-LBD, rat androgen ligand binding domain) (Rattus norvegicus (Rat), UniProt P15207); assay: Androgen receptor fluorescence polarization assay; settings: read-out: % Max
Source text: • The following abbreviations and sources of materials are used • Fluormone PL Red—a commercially available PR fluoroprobe (Invitrogen, P2964) • Fluormone GS Red—a commercially available GR fluoroprobe (PanVera Corp, Product No P2894) • Fluormone AL Red—a commercially available AR fluoroprobe (Invitrogen, PV4294,) • MBP-hPR-LBD—maltose binding protein Purified human progesterone ligand binding domain (made in house) • GR—purified human glucocorticoid receptor (PanVera Corp, Product No P2812) • MBP-hAR-LBD—maltose binding protein Purified rat androgen ligand binding domain (made in house) • PR Screening Buffer—100 mM potassium phosphate (pH 7.4), 100 μG/ml bovine gamma globulin, 15% ethylene glycol, 10% glycerol with 2 mM CHAPS, 1 mM DTT added fresh and 4% DMSO added fresh (final of 5% DMSO in assay with 1% concentration coming from compound dispense) • AR Screening Buffer—50 mM Tris pH 7.5, 100 mM Ammonium Sulfate, 20% glycerol, 3% xylitol with 5 mM Chaps, 2 mM DTT added fresh and 4% DMSO added fresh (final of 5% DMSO in assay with 1% concentration coming from compound dispense) • GR Screening Buffer—100 mM potassium phosphate (pH 7.4), 200 mM Na2MoO2, 1 mM EDTA, 20% DMSO (PanVera Corp Product No P2814) with GR stabilizing peptide (100 μM) (PanVera Corp Product No P2815) • DTT—dithiothreitol (PanVera Corp Product No P2325) • Discovery Analyst—is an FP reader • DMSO—dimethylsulphoxide Progesterone Receptor Fluorescence Polarization Assay:
The androgen receptor fluorescence polarization assay is used to investigate the interaction of the compounds with the androgen receptor.
Compounds are added to the 384 well black low-volume plates to a final volume of 0.1 μL. DTT and DMSO are added to the chilled assay buffer just before beginning assay. Sufficient Fluormone AL Red and AR-LBD are defrosted on ice and added to the chilled buffer in a glass tube to give a final concentration of 1 nM and 100 nM, (for current batch) respectively. A volume of 10 μL of the assay mix is added to compound plates with a multidrop. […] The plates are counted in a Discovery Analyst with suitable 535 nm excitation and 590 nm emission interference filters (Dichroic 561 nM). […] Test compounds are dissolved and diluted in DMSO. Compounds are assayed in singlicate, a four parameter curve fit of the following form being applied
[formula] where a is the minimum, b is the Hill slope, c is the IC50 and d is the maximum.
Data is presented as the mean pIC50 with the standard error of the mean of n experiments.

[2] = test system: castrated male Sprague-Dawley rats; assay: Castrated male rat model (ORX rat); type: in vivo; settings: for prostate sparing: defined as at least a 2:1 ratio of levator ani ED50 to prostate ED50; for levator ani hypertrophy: favorable = 30% or greater increase in levator ani weight vs vehicle-treated castrates, dosed orally at up to 10 mg/kg/day
Source text: The activity of the compounds of the present invention as modulators of the androgen receptor was investigated using a castrated male rat model (ORX) as described in C. D. Kockakian, Pharmac. Therap. B1(2), 149-177 (1975); C. Tobin and Y. Joubert, Developmental Biology 146, 131-138 (1991); J. Antonio, J. D. Wilson and F. W. George, J Appl. Physiol. 87(6) 2016-2019 (1999)) the disclosures of which herein are included by reference.
Androgens have been identified as playing important roles in the maintenance and growth of many tissues in both animals and humans. Muscles, like the levator ani and bulbocavernosus, and sexual accessory organs, such as the prostate glands and seminal vesicles have high expression levels of the androgen receptor and are known to respond quickly to exogenous androgen addition or androgen deprivation through testicular ablation. Castration produces dramatic atrophy of muscle and sexual accessory organs; whereas the administration of exogenous androgens to the castrated animal results in effective hypertrophy of these muscles and sexual accessory organs. Although the levator ani muscle, also known as the dorsal bulbocavernosus, is not ‘true skeletal muscle’ and definitely sex-linked, it is reasonable to use this muscle to screen muscle anabolic activities of test compounds because of its androgen responsiveness and simplicity of removal.
Male Sprague-Dawley rats weighing 160-180 grams were used in the assay. The rats were singly caged upon receiving and throughout the study. Bilateral orchidectomies were performed in sterilized surgical conditions under isoflurane anesthesia. An anteroposterior incision was made in the scrotum. The testicles were exteriorized and the spermatic artery and vas deferens were ligated with 4.0 silk 0.5 cm proximal to the ligation site. The testicles then were removed by a surgical scissors distal to the ligation sites. The tissue stumps were returned to the scrotum, the scrotum and overlying skin were closed by a surgical stapler. The Sham-ORX rats underwent all procedures except ligation and scissors cutting. The rats were assigned randomly into study groups 7-10 days post surgery based on the body weight.
Dihydrotestosterone (DHT) and the standard SARM, S-22, (J. Pharma. Exper. Thera. Vol 315, p. 230) were used as a positive control (1-10 mg/kg s.c. for DHT and 0.1 to 3 mg/kg p.o. for S-22). Compounds of the current invention were administered subcutaneously or orally for 4-28 days. Alternatively, some compounds of the current invention were administered subcutaneously or orally for 7-49 days. The rats were weighed daily and doses were adjusted accordingly. The general well being of the animal was monitored throughout the course of the study.
At the end of the study, the rats were euthanized in a CO2 chamber. The ventral prostate glands (VP), seminal vesicles (SV), levator ani muscle (LA) and bulbocavernosus (BC) were carefully dissected. The tissues were blotted dry; the weights were recorded, and then saved for histological and molecular analysis. The VP and SV weights serve as androgenic indicators and LA and BC as anabolic indicators. The ratio of anabolic to androgenic activities was used to evaluate the test compounds. Serum luteinizing hormone (LH), follicle stimulating hormone (FSH) and other potential serum markers of anabolic activities were also analyzed.
The compounds shown in Examples 9, 20, 26, 27, 33, 51, 52, and 53 were tested in the castrated male rate model essentially as described above. Test compounds were employed in free or salt form. […] Prostate sparing was defined as at least a 2:1 ratio of levator ani ED50 to prostate ED50. The ED50 is defined as 50% of the maximum response above the vehicle treated castrate level. For shorter term studies (4-7 days), the maximum response is defined as the maximum response from positive control (DHT or standard SARM, S-22) treatment. For the longer term studies (7-49 days), the ED50 is defined as 50% of the eugonadal state. […]

androgen receptor (MBP-hAR-LBD, rat androgen ligand binding domain), sequence (P15207 651-882): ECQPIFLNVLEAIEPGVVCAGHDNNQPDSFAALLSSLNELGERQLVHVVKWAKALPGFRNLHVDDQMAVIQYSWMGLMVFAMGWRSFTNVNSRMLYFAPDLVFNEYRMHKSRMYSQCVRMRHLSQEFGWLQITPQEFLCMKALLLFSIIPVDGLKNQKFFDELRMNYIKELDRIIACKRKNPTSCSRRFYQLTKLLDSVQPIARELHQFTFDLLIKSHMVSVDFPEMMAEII

SMILES | Emax [1] [%] | prostate sparing [2] | levator ani hypertrophy [2]
CCC(C(=O)OC)n1c(C)cc2c(C(F)(F)F)c(C#N)ccc21 (stereo not shown) [Example 2, Methyl 2-[5-cyano-2-methyl-4-(trifluoromethyl)-1H-indol-1-yl]butanoate] | 72 | – | –
Cc1cc2c(C(F)(F)F)c(C#N)ccc2n1C(C)CO (stereo not shown) [Example 7, 1-(1-Hydroxypropan-2-yl)-2-methyl-4-(trifluoromethyl)-1H-indole-5-carbonitrile] | 100 | – | –
Cc1cc2c(C(F)(F)F)c(C#N)ccc2n1C(C)CS(C)(=O)=O (stereo not shown) [Example 9, 2-Methyl-1-(1-(methylsulfonyl)propan-2-yl)-4-(trifluoromethyl)-1H-indole-5-carbonitrile] | – | spared the prostate | favorable levator ani hypertrophy
CCCc1cc2c(C(F)(F)F)c(C#N)ccc2n1CC(C)(C)O [Example 12, 1-(2-Hydroxy-2-methylpropyl)-2-propyl-4-(trifluoromethyl)-1H-indole-5-carbonitrile] | 90 | – | –
CSCC(C)n1c(C(F)F)cc2c(C#N)c(C#N)ccc21 (stereo not shown) [Example 17, 2-(Difluoromethyl)-1-(1-(methylthio)propan-2-yl)-1H-indole-4,5-dicarbonitrile] | 99 | – | –
C[C@H](n1ccc2c(C(F)(F)F)c(C#N)ccc21)C(C)(C)O [Example 21, (S)-1-(3-Hydroxy-3-methylbutan-2-yl)-4-(trifluoromethyl)-1H-indole-5-carbonitrile] | 100 | – | –
C[C@@H](n1ccc2c(C(F)(F)F)c(C#N)ccc21)C(C)(C)O [Example 22, (R)-1-(3-Hydroxy-3-methylbutan-2-yl)-4-(trifluoromethyl)-1H-indole-5-carbonitrile] | 100 | – | –
CC(CS(C)(=O)=O)n1ccc2c(C(F)(F)F)c(C#N)ccc21 (stereo not shown) [Example 26, 1-(1-(Methylsulfonyl)propan-2-yl)-4-(trifluoromethyl)-1H-indole-5-carbonitrile] | – | spared the prostate | favorable levator ani hypertrophy
C[C@H](CS(C)(=O)=O)n1ccc2c(C(F)(F)F)c(C#N)ccc21 [Example 27, (R)-1-(1-(Methylsulfonyl)propan-2-yl)-4-(trifluoromethyl)-1H-indole-5-carbonitrile] | 91 | spared the prostate | favorable levator ani hypertrophy
C[C@H](n1ccc2c(Cl)c(C#N)ccc21)C(C)(C)O [Example 32, (S)-4-Chloro-1-(3-hydroxy-3-methylbutan-2-yl)-1H-indole-5-carbonitrile] | 78 | – | –
CC(C)(O)C(C)(C)n1ccc2c(C#N)c(C#N)ccc21 [Example 43, 1-(3-Hydroxy-2,3-dimethylbutan-2-yl)-1H-indole-4,5-dicarbonitrile] | 105 | – | –
CC[C@H](c1cncc(C#N)c1)n1ccc2c(C#N)c(C#N)ccc21 [Example 51, (R)-1-(1-(5-Cyanopyridin-3-yl)propyl)-1H-indole-4,5-dicarbonitrile] | – | spared the prostate | favorable levator ani hypertrophy
C[C@@H](n1ccc2c(Cl)c(C#N)ccc21)[C@](C)(O)C(F)(F)F [Example 52, 4-Chloro-1-((2R,3S)-4,4,4-trifluoro-3-hydroxy-3-methylbutan-2-yl)-1H-indole-5-carbonitrile] | 97 | spared the prostate | favorable levator ani hypertrophy
C[C@@H](n1ccc2c(C(F)(F)F)c(C#N)ccc21)[C@](C)(O)C(F)(F)F [Example 53, 1-((2R,3S)-4,4,4-Trifluoro-3-hydroxy-3-methylbutan-2-yl)-4-(trifluoromethyl)-1H-indole-5-carbonitrile] | – | spared the prostate | favorable levator ani hypertrophy
